Experimental data: patent US20050187181A1 (University of Maryland, priority 2004, published 2005)
Entries after “also recorded” stand apart in the source; their conditions may differ. Where two headings read alike, the source gives them in different places.

Legend:
[1] = test system: murine model of colitis (DSS); details: cited from earlier work
[2] = test system: lipopolysaccharide-induced shock; details: cited from earlier work
[3] = water; cited from earlier work
[4] = human blood; cited from earlier work
[5] = test system: rats in severe hemorrhagic shock; details: for survival compared to saline and cytidine controls (Kaplan-Meier): single dose of 2.5 mM in saline, 8 rats/group, p<0.001
Description: Pentobarbital-anesthetized rats were subjected to severe hemorrhagic shock. Five groups of eight rats were resuscitated.
Plasma K^+ was measured from plasma taken before hemorrhage, before resuscitation and 0.5 hrs after resuscitation using a K^+ electrode (Jenco Electronics, Inc., San Diego, Calif.). Survival time between groups was compared by Kaplan-Meier survival Analysis.

[6] = test system: septic shock induced by cecal ligation and puncture (CLP); details: cited from earlier work
[7] = test system: rat in endotoxic shock (LPS); assay: Endotoxic shock (LPS 10 mg/kg iv) with intravenous inosine infusion; type: in vivo
Description: Pentobarbital-anesthetized (50 mg/kg) rats (380-420 g) had cannulas placed in their femoral artery and vein. Arterial Blood pressure was monitored via the femoral artery cannula. After 15 minutes of stabilization, the rats were injected with 10 mg/kg of lipopolysaccharide (LPS, Sigma Aldrich, serotype 026:B6) in saline via the femoral vein. At the same time, an infusion of saline or inosine (5 mM) in saline or no infusion was begun (5 ml/hr) via the femoral vein cannula. A 5 mM solution of inosine is […]. Arterial pressure and heart rate were monitored throughout the procedure. Survival time was recorded. Supplemental doses (15 mg/kg) of pentobarbital were given via the femoral vein cannula every hour. Rats surviving beyond 8.5 hr had their cannulas removed and were allowed to recover from pentobarbital anesthesia. These rats lived till 48 hours at which time we terminated the experiment. Inosine was administered at a rate of 1.34 mg/ml at 5 ml/hour for 5 hours which is a total of 33.5 mg for 5 hours. In 400 gram rats that is a total of about 83.75 mg/kg over the 5 hour period; 16.75 mg/hr or 402 mg/day.

[8] = test system: Na/K ATPase; assay: Na/K ATPase assay (86Rb uptake into red blood cells);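 further: washed human red blood cells in K-free Ringer, test agent preincubated 20 min, then 86Rb uptake over 4 h at 37 °C counted as CPM per tube versus water control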
Description: Human red blood cells of any group-type were donated for research by the Blood Bank of the University Of Maryland, School of Medicine. Five ml of red cells are washed 3 times in 40 ml of Potassium free Ringers solution (141 mM NaCl, 1 mM H2NaPO4, 0.5 mM CaCl2, 1 mM MgSO4, 4.5 mM glucose, 10 mM HEPES pH7.4). 50 μl of washed red cells are added to 220 μl of potassium free Ringers solution. 30, 10, 3 or 1 μl of ultra-filtrate, HPLC (high performance liquid chromatography) fraction, or adenosine, inosine, guanosine, deoxyadenosine, deoxyguanosine, caffeine, aminophylline, dipyridamole, NBTI, 6thioinosine, 6thioguanosine, or EHNA (all in buffer) is added to the mixture and incubated for 20 min. 4 μCi of 86RbCl is added and incubated for 4 hrs at 37° C. The mixture is than washed three times with 4° C. Potassium free Ringers solution and the cells counted in a gamma counter (Packard, Cobra II). Na/K ATPase activity is expressed as the CPM (counts per minute) (CPM/tube*4 hrs). The effects of ultra-filtrate or HPLC fractions on ^86Rb uptake into red cells are compared to equal volumes of either water (control) or, in some cases, 0.01 mM Ouabain (maximal inhibition).

In the case of `OC[C@H]1O[C@@H](n2cnc3c(O)ncnc32)[C@H](O)[C@@H]1O` [inosine], the mortality ([1]; oral inosine from day one, by day 30) is given as 60%, the protection of colon ([1]; oral inosine) is given as “protected the colon from DSS induced inflammatory cell infiltration and lipid peroxidation” and the mortality ([2]; single IP 100 mg/kg 30 minutes before LPS 70 mg/kg IP, at 36 hours) is given as 19%. For the same molecule, the mortality ([2]; single IP 100 mg/kg before LPS, at 60 hours) was 37.5%, the mortality ([2]; single IP 100 mg/kg before LPS, by 96 hours) was 50% and the “survival compared to untreated mice” value ([2]; single IP 100 mg/kg before LPS) was “prolonged survival compared to untreated mice”. For the same molecule, the solubility [3] was “highly soluble in water”, the half life [4] was < 1 s and the “bradycardia on resuscitation from hemorrhagic shock” value ([5]; 2.5 mM in saline) was “did not cause the bradycardia”. For the same molecule, the “time to 50% mortality” value ([5]; 2.5 mM in saline) was “about 100 minutes”, the “time to 100% mortality” value ([5]; 2.5 mM in saline) was “about 150 minutes” and the “effect on shock-elevated plasma K^+” value ([5]; 2.5 mM in saline, 0.5 hr) was “lowered the shock-elevated plasma K^+”. The “Plasma K^+ 0.5 hr after Resuscitation” value ([5]; 2.5 mM in saline, mean ± SE, N = 7/group) was 2.93 ± 0.21 mM, the “adverse effects on resuscitation from hemorrhagic shock” value ([5]; rat, in vivo) was “without any adverse effects” and the “survival compared to saline and cytidine controls (Kaplan-Meier)” value [5] was “survived significantly longer”. The “survival compared to saline and cytidine controls (Kaplan-Meier)” value ([5]; listed as Inosine) was “survived significantly longer than saline or cytidine controls; also recorded: significantly increased survival”, the organ damage ([6]; 100 mg/kg IP x3) was “significantly reduced” and the survival ([6]; 100 mg/kg IP x3) was “significantly improved”. The mortality ([6]; post-treatment protocol, 100 mg/kg IP x3, at 24 hours) was “about 20%”, the mortality ([6]; post-treatment protocol, at 120 hours) was “about 90%” and the mortality ([6]; post-treatment protocol, by 48 hours) was “about 80%”. For the same molecule, the mortality ([6]; pre-treatment protocol, 100 mg/kg IP x3, by 24 hours) was 15%, the mortality ([6]; pre-treatment protocol, by 48 hours) was “about 70%” and the mortality ([6]; pre-treatment protocol, by 120 hours) was “about 75%”. The “survival compared to saline or no-resuscitation groups (Kaplan-Meier)” value ([7]; continuous infusion 5 ml/hr of 5 mM for 5 hrs) was “survived significantly longer than the saline or no-resuscitation groups”, the “survival / success in resuscitating rats fully” value ([7]; iv infusion 5 mM, 5 ml/hr, 5 hours, observed to 48 hours) was 100% and the “relative effectiveness at stimulating Na/K ATPase” value ([8]; 10^-3 Molar (FIG. 8)) was “both equally effective”. For the same molecule, the “stimulation of Na/K ATPase” value ([8]; human red blood cells, dose response (FIG. 3b, FIG. 8)) was “stimulated Na/K ATPase in a dose-dependent manner” and the “stimulation of Na/K ATPase in the presence of ouabain” value ([8]; partial inhibition / sub maximal doses of ouabain (FIG. 9)) was “overcame partial inhibition by ouabain”.
